Results as given in patent US8975277B2, “2,3-dihydrofuro[2,3-c]pyridin-2-ylpiperidine derivatives” (Boehringer Ingelheim International GmbH, priority 2012, dated 2015).

These compounds were tested against T1, human GPR119 (Homo sapiens, UniProt Q8TDV5) (assay: AlphaScreen cAMP assay, activation of GPR119 in MIN6 cells stably transfected with human GPR119). Details: Min-6/hGPR119 cells, intracellular cAMP, 45 minutes incubation at room temperature.
T1 construct: expression vector for human GPR119 cDNA (Acc. No. NP_848566); expressed in transfected cells
T1 sequence (Q8TDV5 1-335): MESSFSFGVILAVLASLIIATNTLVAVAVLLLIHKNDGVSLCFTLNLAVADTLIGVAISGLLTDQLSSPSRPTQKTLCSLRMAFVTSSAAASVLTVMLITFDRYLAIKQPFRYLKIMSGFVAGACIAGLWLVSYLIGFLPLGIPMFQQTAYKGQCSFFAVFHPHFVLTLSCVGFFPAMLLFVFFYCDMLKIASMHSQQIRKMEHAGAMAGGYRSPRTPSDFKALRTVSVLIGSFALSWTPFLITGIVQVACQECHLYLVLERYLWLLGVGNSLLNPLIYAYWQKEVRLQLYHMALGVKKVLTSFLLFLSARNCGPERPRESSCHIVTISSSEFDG
Assay type: cell-based
Method: The compounds of the invention modulate the activity of the G-protein-coupled receptor GPR119. The effect of the compounds on the activation of GPR119 and on the stimulation of intracellular cAMP concentration is determined using the AlphaScreen cAMP Assay Kit (Cat.No.#6760625R) made by Perkin Elmer.
MIN6 cells [Miyazaki J et al., Endocrinology. 1990 July; 127(1):126-32] are stably transfected with an expression vector for human GPR119 cDNA (Acc. No. NP_848566). Min-6/hGPR119 cells are cultured in DMEM, 10% FBS, 50 μM β-mercaptoethanol, 0.3 mg/mL Geniticin, 2 mM GlutaMAX at 37° C., 5% CO2. For the assay, the cells are seeded in Optiplates (white, 384-well, 160W-barcoded, TC, sterile with lid, Cat.No.#6007688 (Perkin Elmer); 10000 cells/well; 50 μL). The plates covered with lids are then incubated for 24 hours at 37° C., 5% CO2. After the medium is aspirated from the wells completely, 10 μl of the test compound are added, the compounds are diluted using stimulating buffer (140 mM NaCl, 3.6 mM KCl, 0.5 mM NaH2PO4, 0.5 mM MgSO4, 1.5 mM CaCl2, 10 mM Hepes, 5 mM NaHCO3; pH 7.4. 0.5 mM IBMX and 0.1% BSA, the final DMSO concentration is 1%). After 45 minutes incubation at room temperature (approx. 20° C.), the cAMP concentrations are determined using the AlphaScreen cAMP Assay Kit (Cat.No.#6760625R from PerkinElmer).

EC50 [nM]	SMILES
4	C[C@@H](OC(=O)N1CCC([C@@]2(C)Cc3cc(-c4ccc(S(C)(=O)=O)cc4)ncc3O2)CC1)C(F)(F)F [Example 8, (R)-4-[(R)-5-(4-Methanesulfonyl-phenyl)-2-methyl-2,3-dihydro-furo[2,3-c]pyridin-2-yl]-piperidine-1-carboxylic acid 2,2,2-trifluoro-1-methyl-ethyl ester]
6	C[C@@H](OC(=O)N1CCC([C@H]2Cc3cc(C4=CCN(S(C)(=O)=O)CC4)ncc3O2)CC1)C(F)(F)F [Example 3, (R)-4-[(R)-5-(1-Methanesulfonyl-1,2,3,6-tetrahydro-pyridin-4-yl)-2,3-dihydro-furo[2,3-c]pyridin-2-yl]-piperidine-1-carboxylic acid 2,2,2-trifluoro-1-methyl-ethyl ester]
6	C[C@@H](OC(=O)N1CCC([C@H]2Cc3cc(-c4ccc(S(C)(=O)=O)cc4)ncc3O2)CC1)C(F)(F)F [Example 2, (R)-4-[(R)-5-(4-Methanesulfonyl-phenyl)-2,3-dihydro-furo[2,3-c]pyridin-2-yl]-piperidine-1-carboxylic acid 2,2,2-trifluoro-1-methyl-ethyl ester]
7	C[C@@H](OC(=O)N1CCC([C@@]2(C)Cc3cc(C4=CCN(S(C)(=O)=O)CC4)ncc3O2)CC1)C(F)(F)F [Example 6, (R)-4-[(R)-5-(1-Methanesulfonyl-1,2,3,6-tetrahydro-pyridin-4-yl)-2-methyl-2,3-dihydro-furo[2,3-c]pyridin-2-yl]-piperidine-1-carboxylic acid 2,2,2-trifluoro-1-methyl-ethyl ester]
5	C[C@H](OC(=O)N1CCC([C@H]2Cc3cc(C4=CCN(S(C)(=O)=O)CC4)ncc3O2)CC1)C(F)(F)F [Example 4, (S)-4-[(R)-5-(1-Methanesulfonyl-1,2,3,6-tetrahydro-pyridin-4-yl)-2,3-dihydro-furo[2,3-c]pyridin-2-yl]-piperidine-1-carboxylic acid 2,2,2-trifluoro-1-methyl-ethyl ester]
5	C[C@H](OC(=O)N1CCC([C@H]2Cc3cc(-c4ccc(S(C)(=O)=O)cc4)ncc3O2)CC1)C(F)(F)F [Example 1, (S)-4-[(R)-5-(4-Methanesulfonyl-phenyl)-2,3-dihydro-furo[2,3-c]pyridin-2-yl]-piperidine-1-carboxylic acid 2,2,2-trifluoro-1-methyl-ethyl ester]
1	C[C@H](OC(=O)N1CCC([C@@]2(C)Cc3cc(-c4ccc(S(C)(=O)=O)cc4)ncc3O2)CC1)C(F)(F)F [Example 9, (S)-4-[(R)-5-(4-Methanesulfonyl-phenyl)-2-methyl-2,3-dihydro-furo[2,3-c]pyridin-2-yl]-piperidine-1-carboxylic acid 2,2,2-trifluoro-1-methyl-ethyl ester]
3	C[C@H](OC(=O)N1CCC([C@@]2(C)Cc3cc(C4=CCN(S(C)(=O)=O)CC4)ncc3O2)CC1)C(F)(F)F [Example 7, (S)-4-[(R)-5-(1-Methanesulfonyl-1,2,3,6-tetrahydro-pyridin-4-yl)-2-methyl-2,3-dihydro-furo[2,3-c]pyridin-2-yl]-piperidine-1-carboxylic acid 2,2,2-trifluoro-1-methyl-ethyl ester]
109	C[C@H](OC(=O)N1CCC([C@]2(C)Cc3cc(C4=CCN(S(C)(=O)=O)CC4)ncc3O2)CC1)C(F)(F)F [Example 5, (S)-4-[(S)-5-(1-Methanesulfonyl-1,2,3,6-tetrahydro-pyridin-4-yl)-2-methyl-2,3-dihydro-furo[2,3-c]pyridin-2-yl]-piperidine-1-carboxylic acid 2,2,2-trifluoro-1-methyl-ethyl ester]
